# Reference: US7872014B2, “Anaplastic lymphoma kinase modulators and methods of use” (Exelixis, Inc., priority 2003, dated 2011)
# Structures can show the parent of a compound that is named as a salt.
# Molecular target: T1, ALK (baculovirus expressed human ALK kinase domain F1098-K1410) (Homo sapiens, UniProt Q9UM73)
# T1 construct: baculovirus expressed human ALK kinase domain F1098-K1410; made in house
# Test: Luciferase-Coupled Chemiluminescent Kinase assay (LCCA), ALK biochemical activity
# Conditions: inhibition of ALK; mean values; 1 μM ATP, 4 μM poly-AEKY, 12 nM ALK, 2 hours ambient temperature
# Procedure: ALK biochemical activity was assessed using a Luciferase-Coupled Chemiluminescent Kinase assay (LCCA) format in which kinase activity was measured as the percent ATP remaining following the kinase reaction. ATP remaining after the kinase reaction was detected by luciferase-luciferin-coupled chemiluminescence.
# The reaction was initiated by mixing test compounds, 1 μM ATP, 4 μM poly-AEKY and 12 nM ALK (baculovirus expressed human ALK kinase domain F1098-K1410) in a 20 μL assay buffer ([…] pH 7.5, 10 mM MgCl2, 0.02% Triton X-100, 100 mM DTT, 2 mM MnCl2). The mixture was incubated at ambient temperature for 2 hours after which 20 μL luciferase-luciferin mix was added and the chemiluminescent signal read using a Wallac Victor^2 reader. The luciferase-luciferin mix consists of 50 mM HEPES, pH 7.8, 8.5 μg/mL oxalic acid (pH 7.8), 5 (or 50) mM DTT, 0.4% Triton X-100, 0.25 mg/mL coenzyme A, 63 μM AMP, 28 μg/mL luciferin and 40,000 units of light/mL luciferase.
# Consumption of ATP by ALK can thus be quantified and utilized as a measure of inhibition of ALK activity by compounds described herein. By employing serial dilutions of compounds to be tested, the ability of test compounds to inhibit ALK activity can be determined.
# T1 sequence (Q9UM73 1098-1410): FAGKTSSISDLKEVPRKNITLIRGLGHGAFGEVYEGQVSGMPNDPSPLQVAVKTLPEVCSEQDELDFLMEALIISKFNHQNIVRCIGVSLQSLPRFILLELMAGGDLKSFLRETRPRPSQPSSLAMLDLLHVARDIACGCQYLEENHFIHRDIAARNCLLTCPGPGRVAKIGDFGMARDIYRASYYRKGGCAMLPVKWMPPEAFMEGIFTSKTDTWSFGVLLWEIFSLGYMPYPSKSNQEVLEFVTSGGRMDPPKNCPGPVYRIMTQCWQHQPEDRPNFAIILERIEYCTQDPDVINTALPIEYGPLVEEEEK
row,SMILES,IC50 [µM]
1,"COCCOc1cc2c(-c3ccc(O)c(Br)c3)nc3[nH]nc(C)c3c2cc1OCCOC [Example 118, 2-bromo-4-(1-methyl-7,8-bis{[2-(methyloxy)ethyl]oxy}-3H-pyrazolo[3,4-c]isoquinolin-5-yl)phenol]",0.1 to 0.999
2,"CC(=O)Nc1ncc(-c2nc3[nH]nc(C)c3c3c(F)c(O)cc(F)c23)s1 [Example 203, N-[5-(6,9-difluoro-8-hydroxy-1-methyl-3H-pyrazolo[3,4-c]isoquinolin-5-yl)-1,3-thiazol-2-yl]acetamide]",1 to 2
3,"COCCOc1cc(F)c2c(-c3ccccc3F)nc3[nH]nc(C)c3c2c1F [Example 156, 6,9-difluoro-5-(2-fluorophenyl)-1-methyl-8-{[2-(methyloxy)ethyl]oxy}-3H-pyrazolo[3,4-c]isoquinoline]",> 2
4,"Cc1n[nH]c2cc(-c3ccc(O)cc3)c3ccccc3c12 [Example 159, 4-(1-methyl-3H-benzo[e]indazol-5-yl)phenol]",0.1 to 0.999
5,"COc1cc2c(-c3ccc(O)cc3)nc3[nH]nc(CNCc4ccccc4)c3c2cc1OC [Example 82, 4-(7,8-bis(methyloxy)-1-{[(phenylmethyl)amino]methyl}-3H-pyrazolo[3,4-c]isoquinolin-5-yl)phenol]",0.1 to 0.999
6,"Cc1n[nH]c2nc(-c3cn(C)c(=N)s3)c3c(F)cc(O)c(F)c3c12 [Example 221, 6,9-difluoro-5-(2-imino-3-methyl-2,3-dihydro-1,3-thiazol-5-yl)-1-methyl-3H-pyrazolo[3,4-c]isoquinolin-8-ol]",1 to 2
7,"Cc1n[nH]c2nc(-c3ccc(N)s3)c3c(F)cc(O)c(F)c3c12 [Example 199, 5-(5-amino-2-thienyl)-6,9-difluoro-1-methyl-3H-pyrazolo[3,4-c]isoquinolin-8-ol]",0.1 to 0.999
8,"COc1cc2c(-c3ccc(O)cc3)nc3[nH]nc(C)c3c2cc1OC [Example 15, trifluoroacetate]",≤ 0.099
9,"COc1ccc2c(-c3ccc(O)c(Br)c3)nc3[nH]nc(C)c3c2c1OC [Example 72, 2-bromo-4-[1-methyl-8,9-bis(methyloxy)-3H-pyrazolo[3,4-c]isoquinolin-5-yl]phenol]",≤ 0.099
10,"CCN1CCN(CCOc2cc(F)c3c(-c4ccc(O)c(Cl)c4)nc4[nH]nc(C)c4c3c2OC)CC1 [Example 196, 2-chloro-4-[8-{[2-(4-ethylpiperazin-1-yl)ethyl]oxy}-6-fluoro-1-methyl-9-(methyloxy)-3H-pyrazolo[3,4-c]isoquinolin-5-yl]phenol]",≤ 0.099
11,"COc1cc2c(-c3ccc(O)c(OC(F)F)c3)nc3[nH]nc(C)c3c2cc1OC [Example 76, 2-[(difluoromethyl)oxy]-4-[1-methyl-7,8-bis(methyloxy)-3H-pyrazolo[3,4-c]isoquinolin-5-yl]phenol]",1 to 2
12,"Cc1n[nH]c2nc(-c3cc(Cl)c(O)cc3F)c3c(F)cc4c(c3c12)OCCO4 [Example 165, 2-chloro-5-fluoro-4-(6-fluoro-11-methyl-2,3-dihydro-9H-[1,4]dioxino[2,3-f]pyrazolo[3,4-c]isoquinolin-7-yl)phenol]",≤ 0.099
13,"COc1c(OCCN2CCN(CC(C)C)CC2)cc(F)c2c(-c3ccc(O)c(Cl)c3)nc3[nH]nc(C)c3c12 [Example 214, 2-chloro-4-[6-fluoro-1-methyl-9-(methyloxy)-8-({2-[4-(2-methylpropyl)piperazin-1-yl]ethyl}oxy)-3H-pyrazolo[3,4-c]isoquinolin-5-yl]phenol]",≤ 0.099
14,"COc1cc2c(-c3ccc(O)cc3)nc3[nH]nc(CN4CCCC4=O)c3c2cc1OC [Example 45, 1-{[5-(4-hydroxyphenyl)-7,8-bis(methyloxy)-3H-pyrazolo[3,4-c]isoquinolin-1-yl]methyl}pyrrolidin-2-one]",0.1 to 0.999
15,"COCCOc1ccc2c(-c3ccc(O)c(Cl)c3)nc3[nH]nc(C)c3c2c1OC [Example 108, 2-chloro-4-(1-methyl-9-(methyloxy)-8-{[2-(methyloxy)ethyl]oxy}-3H-pyrazolo[3,4-c]isoquinolin-5-yl)phenol]",≤ 0.099
16,"Cc1n[nH]c2nc(-c3ccc(O)cc3)c3ccccc3c12 [Example 98, 4-(1-methyl-3H-pyrazolo[3,4-c]isoquinolin-5-yl)phenol]",≤ 0.099
17,"COCCOc1ccc2c(-c3ccc(O)cc3F)nc3[nH]nc(C)c3c2c1OC [Example 130, 3-fluoro-4-(1-methyl-9-(methyloxy)-8-{[2-(methyloxy)ethyl]oxy}-3H-pyrazolo[3,4-c]isoquinolin-5-yl)phenol]",≤ 0.099

# Next, values leading:
row,IC50 [µM],SMILES
1,≤ 0.099,"COc1ccc2c(-c3ccc(O)c(Br)c3)nc3[nH]nc(C)c3c2c1OCC1CCN(C(C)=O)CC1 [Example 107, 4-[9-{[(1-acetylpiperidin-4-yl)methyl]oxy}-1-methyl-8-(methyloxy)-3H-pyrazolo[3,4-c]isoquinolin-5-yl]-2-bromophenol]"
2,≤ 0.099,"COc1c(OCCN2CCN(C(C)C)CC2)cc(F)c2c(-c3ccc(O)c(Cl)c3)nc3[nH]nc(C)c3c12 [Example 216, 2-chloro-4-[6-fluoro-1-methyl-8-({2-[4-(1-methylethyl)piperazin-1-yl]ethyl}oxy)-9-(methyloxy)-3H-pyrazolo[3,4-c]isoquinolin-5-yl]phenol]"
3,≤ 0.099,"COc1cc2c(-c3ccc(O)c(Cl)c3)nc3[nH]nc(C)c3c2cc1OCC1CCN(C)CC1 [Example 88, 2-chloro-4-(1-methyl-7-(methyloxy)-8-{[(1-methylpiperidin-4-yl)methyl]oxy}-3H-pyrazolo[3,4-c]isoquinolin-5-yl)phenol]"
4,≤ 0.099,"COc1cc2c(-c3ccc(O)c(Cl)c3)nc3[nH]nc(C)c3c2cc1OC(C)C [Example 133, 2-chloro-4-[1-methyl-8-[(1-methylethyl)oxy]-7-(methyloxy)-3H-pyrazolo[3,4-c]isoquinolin-5-yl]phenol]"
5,≤ 0.099,"COc1cc2c(-c3ccc(O)c(Cl)c3)nc3[nH]nc(C)c3c2cc1OCC1CCCCO1 (stereo not drawn) [Example 152, 2-chloro-4-{1-methyl-7-(methyloxy)-8-[(tetrahydro-2H-pyran-2-ylmethyl)oxy]-3H-pyrazolo[3,4-c]isoquinolin-5-yl}phenol]"
6,≤ 0.099,"COc1ccc2c(-c3ccc(O)cc3)nc3[nH]nc(C)c3c2c1OCC1CCNCC1 [Example 61, 4-{1-methyl-8-(methyloxy)-9-[(piperidin-4-ylmethyl)oxy]-3H-pyrazolo[3,4-c]isoquinolin-5-yl}phenol]"
7,≤ 0.099,"COCCOc1cc(F)c2c(-c3ccc(O)c(Cl)c3)nc3[nH]nc(C)c3c2c1OCCOC [Example 172, 2-chloro-4-(6-fluoro-1-methyl-8,9-bis{[2-(methyloxy)ethyl]oxy}-3H-pyrazolo[3,4-c]isoquinolin-5-yl)phenol]"
8,≤ 0.099,"COCCOc1ccc2c(-c3ccc(O)c(Br)c3)nc3[nH]nc(C)c3c2c1OCCOC [Example 111, 2-bromo-4-(1-methyl-8,9-bis{[2-(methyloxy)ethyl]oxy}-3H-pyrazolo[3,4-c]isoquinolin-5-yl)phenol]"
9,≤ 0.099,"COc1ccc2c(-c3ccc(O)c(Br)c3)nc3[nH]nc(C)c3c2c1OCC1CCN(C)CC1 [Example 87, 2-bromo-4-(1-methyl-8-(methyloxy)-9-{[(1-methylpiperidin-4-yl)methyl]oxy}-3H-pyrazolo[3,4-c]isoquinolin-5-yl)phenol]"
10,≤ 0.099,"CCN(CC)CCOc1cc(F)c2c(-c3ccc(O)c(Cl)c3)nc3[nH]nc(C)c3c2c1F [Example 188, 2-chloro-4-(8-{[2-(diethylamino)ethyl]oxy}-6,9-difluoro-1-methyl-3H-pyrazolo[3,4-c]isoquinolin-5-yl)phenol]"
11,≤ 0.099,"COc1ccc2c(-c3ccc(O)c(F)c3)nc3[nH]nc(C)c3c2c1OC [Example 70, 2-fluoro-4-[1-methyl-8,9-bis(methyloxy)-3H-pyrazolo[3,4-c]isoquinolin-5-yl]phenol]"
12,≤ 0.099,"Cc1n[nH]c2nc(-c3ccc(O)cc3F)c3c(F)cc4c(c3c12)OCCO4 [Example 164, 3-fluoro-4-(6-fluoro-11-methyl-2,3-dihydro-9H-[1,4]dioxino[2,3-f]pyrazolo[3,4-c]isoquinolin-7-yl)phenol]"
13,≤ 0.099,"COc1c(OCC2CCN(C)CC2)cc2c(c(-c3ccc(O)c(Cl)c3)nc3[nH]nc(C)c32)c1F [Example 171, 2-chloro-4-(6-fluoro-1-methyl-7-(methyloxy)-8-{[(1-methylpiperidin-4-yl)methyl]oxy}-3H-pyrazolo[3,4-c]isoquinolin-5-yl)phenol]"
14,≤ 0.099,"COc1c(OCCN2CCC(N3CCCC3)CC2)cc(F)c2c(-c3ccc(O)c(Cl)c3)nc3[nH]nc(C)c3c12 [Example 233, 2-chloro-4-(6-fluoro-1-methyl-9-(methyloxy)-8-{[2-(4-pyrrolidin-1-ylpiperidin-1-yl)ethyl]oxy}-3H-pyrazolo[3,4-c]isoquinolin-5-yl)phenol]"
15,≤ 0.099,"COc1c(OCCN2CC(C)OC(C)C2)cc(F)c2c(-c3ccc(O)c(Cl)c3)nc3[nH]nc(C)c3c12 (stereo not drawn) [Example 239, 2-chloro-4-[8-{[2-(2,6-dimethylmorpholin-4-yl)ethyl]oxy}-6-fluoro-1-methyl-9-(methyloxy)-3H-pyrazolo[3,4-c]isoquinolin-5-yl]phenol]"
16,≤ 0.099,"COc1cc2c(c(-c3ccc(O)cc3)nc3[nH]ncc32)c(OC)c1OC [Example 34, 4-[6,7,8-tris(methyloxy)-3H-pyrazolo[3,4-c]isoquinolin-5-yl]phenol]"
